{"source": "patent US20130004979A1", "about": "“GLYCOSYLTRANSFERASE REVERSIBILITY FOR SUGAR NUCLEOTIDE SYNTHESIS AND MICROSCALE SCANNING” (WISCONSIN ALUMNI RESEARCH FOUNDATION, priority 2010, published 2013)", "key": {"OleD variant TDP-16 [1]": {"biological_target": "T1, OleD variant TDP-16 (Streptomyces antibioticus, UniProt Q53685, A242L/P67T/Q268V/S132F)", "T1 sequence (Q53685 other isoform, or with tags, fused parts or gaps P55A/P67T/R82V/R83E/T84P/S132F/A242L/Q268V)": "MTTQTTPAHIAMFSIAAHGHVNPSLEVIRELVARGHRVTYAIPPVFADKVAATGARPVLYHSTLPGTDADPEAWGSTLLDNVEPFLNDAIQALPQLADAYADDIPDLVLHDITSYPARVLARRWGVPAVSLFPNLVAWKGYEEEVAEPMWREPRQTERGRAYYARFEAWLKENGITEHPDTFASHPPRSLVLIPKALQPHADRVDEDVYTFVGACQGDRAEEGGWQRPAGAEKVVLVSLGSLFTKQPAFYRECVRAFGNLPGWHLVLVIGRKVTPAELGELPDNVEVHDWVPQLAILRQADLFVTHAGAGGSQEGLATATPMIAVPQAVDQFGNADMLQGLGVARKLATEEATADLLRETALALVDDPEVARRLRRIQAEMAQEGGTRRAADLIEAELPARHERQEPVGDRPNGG", "assay": "NDP screening with 2-chloro-4-nitrophenyl glucoside (9)", "type": "biochemical", "details": "donor 9, TDP-16, NDP as acceptor", "procedure": "Reactions were allowed to proceed for 5 hours, quenched with an equal volume of 40 mM phosphoric acid (adjusted to pH 6.5 with triethylamine) and heated for 30 seconds on a heat block. Following, samples were centrifuged at 10,000 g for 30 min at 0° C. and the supernatant removed for analysis. The clarified reaction mixtures were analyzed by analytical reverse-phase HPLC. HPLC was conducted with a Supelcosil LC18-T (3 μm, 150×4.6 mm) column (from Sigma-Aldrich St. Louis, Mo., USA) with a gradient of 0% B to 100% B over 20 min (A=40 mM phosphoric acid [adjusted to pH 6.5 with triethylamine]; B=10% MeOH in 40 mM phosphoric acid [adjusted to pH 6.5 with triethylamine]; flow rate=0.5 mL min-1) and detection monitored at 254 nm."}, "[2]": {"biological_target": "OleD variant P67T/S312F/A242L/Q268V (Streptomyces antibioticus, UniProt Q53685, A242L/P67T/Q268V/S132F)", "sequence (Q53685 other isoform, or with tags, fused parts or gaps P55A/P67T/R82V/R83E/T84P/S132F/A242L/Q268V)": "as above", "assay": "Determination of equilibrium constants of the glucoside donor/UDP reaction", "type": "biochemical", "details": "with UDP, Tris-HCl 50 mM pH 8.5, 298K, relative to UDP-Glc (33a); calculated from Keq", "procedure": "Equilibrium constants (Keq, pH8.5) were also determined for 1, 2, 4, 7, and 9 and utilized to calculate the corresponding Gibbs free energy according to equation (1).\nΔG°pH8.5=−RT ln(Keq,pH8.5)\nReactions contained 21 μM (200 μg) OleD variant P67T/S312F/A242L/Q268V, 1 mM UDP, and 1 mM β-D-glucopyranoside donor (1, 2, 4, 7, or 9) in Tris-HCl buffer (50 mM, pH 8.5) in a final total volume of 200 μl. Multiple time course evaluations were conducted to determine the time at which each reaction reached equilibrium (<2 min for 7, 9; <90 min for 1, 4; 200 min for 2). Following, each analysis was conducted in triplicate to the minimum observed time point for equilibrium and samples were processed and evaluated as described below to determine concentrations of UDP to 33a (UDP-α-D-glucose). […] Glucoside and aglycon concentrations were inferred from the determined concentrations of UDP and 33a."}, "OleD variant": {"biological_target": "OleD variant (Streptomyces antibioticus, UniProt Q53685, A242L/P67T/Q268V/S132F)", "sequence (Q53685 other isoform, or with tags, fused parts or gaps P55A/P67T/R82V/R83E/T84P/S132F/A242L/Q268V)": "as above", "assay": "β-D-glucoside screening: reverse reaction forming UDP-/TDP-glucose", "type": "biochemical", "details": "in combination with OleD variant TDP-16", "source_text": "The availability of a GT capable of utilizing a wide array of both simple aromatic acceptors and sugar nucleotides set the stage for this systematic study. With the aid of a crystal structure (10), previous directed evolution and engineering of an inverting macrolide-inactivating GT from S. antibioticus (OleD) identified several highly permissive variants for both sugar nucleotides (14 known sugar substrates) and acceptors (>70 structurally diverse known substrates) in the context of the forward reaction (11-16). Utilizing the aglycons recognized in forward reactions as a template, a set of 32 putative ü-D-glucopyranosides donors were synthesized and tested against a series of OleD variants in reverse reactions for production of UDP-J-D-glucose (UDP-Glc, 33a) in the presence of UDP (FIG. 14a). The syntheses of these putative donors required 1-3 steps (37% average overall yield) and, in all but one case (19), provided the desired E-anomer exclusively. Of the 32 putative donors evaluated, 9 (1-9) led to UDP-Glc (33a) formation with all variants examined (FIG. 14b).\nReactions containing 2.1 μM (10 μg) of purified OleD variant, 1 mM of UDP or TDP, and 1 mM of β-D-glucopyranoside (1-32) in Tris-HCl (50 mM, pH 8.5) with a final volume of 100 μl were incubated at room temperature for 1 hour. Samples were frozen in a bath of dry ice and acetone and stored at −20° C. […]"}, "[3]": {"assay": "Solubility of donor under kinetic assay conditions", "type": "physicochemical", "details": "50 mM Tris-HCl buffer, aqueous buffer; 50 mM Tris-HCl (pH 8.5)"}, "OleD variant TDP-16 [4]": {"biological_target": "T1, OleD variant TDP-16", "assay": "Single enzyme coupled colorimetric screen of putative aglycon acceptors (410 nm)", "type": "biochemical", "details": "0.5 mM 9, 0.5 mM acceptor, 5 μM UDP, TDP-16, 410 nm over 480 min", "procedure": "Specifically, each 100 PI reaction in the 96-well plate contained the sugar donor 9 (0.5 mM), a putative aglycon acceptor (0.5 mM), a catalytic amount of UDP (5 3M) and TDP-16 (11 3M) and reaction progress was monitored at 410 nm over 480 min. […] Based upon this cumulative rapid analysis, […] (62-103) led to a positive response (designated as three standard deviations above the mean for control reactions), 37 of which (62-93, 96, 97, 99, 101, 103) were subsequently confirmed by HPLC and/or LC/MS to lead to products consistent with glucoside formation.\nReactions containing 10.5 μM (50 μg) OleD variant TDP-16, 5 μM of UDP, 0.5 mM final acceptor (58 [as a positive control] and 62-111), and 0.5 mM 2-chloro-4-nitrophenyl-β-D-glucoside (9) in Tris-HCl buffer (50 mM, pH 8.5) with a final volume of 100 μl were prepared in a 96 well flat bottom Bacti plate (0.4 mL well^−1; Nagle Nunc International, Rochester, N.Y., USA). Absorbance measurements were recorded every 2 min at 410 nm for 8 hours on a FLUOstar Optima plate reader (BMG, Durham, N.C., USA) with the plate shaken within the reader for 5 seconds before collection of each time point. Reactions containing final acceptor were run at n=1, control reactions lacking final acceptor were run at n=6, and control reactions lacking both final acceptor and UDP were run at n=3. […]"}, "OleD variant TDP-16 [5]": {"biological_target": "T1, OleD variant TDP-16", "assay": "2-chloro-4-nitrophenyl glycoside screening for NDP-sugar formation", "type": "biochemical", "experimental": "Aliquots were removed at various time points, mixed with an equal volume of ddH2O, frozen in a bath of dry ice and acetone, and stored at −20° C. Following, samples were thawed at 4° C. and filtered through a MultiScreen Filter Plate (from Millipore, Billerica, Mass., USA) according to manufacturer's instructions. Samples were evaluated for formation of NDPsugar by analytical reverse-phase HPLC with a 250 mm×4.6 mm Gemini-NX 5μ C18 column (from Phenomenex, Torrance, Calif., USA) using a linear gradient of 0% to 50% CH3CN (solvent B) over 25 minutes (solvent A=50 mM PO4^−2, 5 mM tetrabutylammonium bisulfate, 2% acetonitrile [pH adjusted to 6.0 with KOH]; flow rate=1 ml min^−1; A254 nm)."}}, "data": [{"smiles": "Nc1ncnc2c1ncn2[C@@H]1O[C@H](COP(=O)(O)OP(=O)(O)O)[C@@H](O)[C@H]1O", "note": "[ADP]", "values": [{"measurement": "NDP-sugar formation efficiency", "setting": "OleD variant TDP-16 [1]", "result": "much lower efficiency"}]}, {"smiles": "OCC1O[C@@H](Oc2ccccc2Cl)C(O)[C@@H](O)[C@@H]1O", "note": "(stereo partly drawn) [Compound 4, 2-chlorophenyl-β-D-glucopyranoside]", "values": [{"measurement": "ΔG°pH8.5 of donor to UDP-Glc transformation", "setting": "[2]", "result": "+2.55 kcal mol-1"}]}, {"smiles": "O=[N+]([O-])c1ccc(O[C@@H]2OC(CO)[C@@H](O)[C@H](O)C2O)c(Cl)c1", "note": "(stereo partly drawn) [Compound 9, 2-chloro-4-nitrophenyl-β-D-glucopyranoside]", "values": [{"measurement": "ΔG°pH8.5 of donor to UDP-Glc transformation", "setting": "[2]", "result": "−2.78", "unit": "kcal mol-1"}, {"measurement": "overall yields of UDP-Glc (33a) or TDP-Glc (33b)", "setting": "OleD variant", "result": "best overall yields"}, {"measurement": "solubility", "setting": "[3]", "result": "~25", "unit": "mM"}]}, {"smiles": "O=c1c(-c2ccc(O)cc2)coc2cc(O)cc(O)c12", "note": "[Compound 62, genistein]", "values": [{"measurement": "response in colorimetric screen (three standard deviations above the mean for control reactions)", "setting": "OleD variant TDP-16 [4]", "result": "hits"}]}, {"smiles": "O=C(O)c1cn(C2CC2)c2cc(N3CCNCC3)c(F)cc2c1=O", "note": "[Compound 92, ciprofloxacin]", "values": [{"measurement": "response in colorimetric screen (three standard deviations above the mean for control reactions)", "setting": "OleD variant TDP-16 [4]", "result": "hits"}]}, {"smiles": "Nc1nc2c(ncn2[C@@H]2O[C@H](COP(=O)(O)OP(=O)(O)O)[C@@H](O)[C@H]2O)c(=O)[nH]1", "note": "[GDP]", "values": [{"measurement": "NDP-sugar formation efficiency", "setting": "OleD variant TDP-16 [1]", "result": "much lower efficiency"}]}, {"smiles": "O=[N+]([O-])c1ccc(O[C@H]2OC[C@@H](O)[C@H](O)[C@H]2O)c(Cl)c1", "note": "[α-anomer of 38]", "values": [{"measurement": "turnover as donor substrate (anomer)", "setting": "OleD variant TDP-16 [5]", "result": "no turnover"}]}]}
